Experimental data taken from PubChem BioAssay AID1918996 (Molecular Pharmacology Branch, DTP, NCI, 2023).
Values joined by “and” are separate entries in the source; they are usually repeats but may differ in a detail not shown here. Equal values may be shown once.

Test system: 349418-098-R-PDC complex spheroid growth
Assay: Anticancer human tumor 349418-098-R-PDC patient-derived lung adenocarcinoma cell line growth inhibition [AhR]
Details: for viability, T/C: stronger effect = lower value; for IC50: curve of compound
Description: Multicellular complex tumor spheroid response to aryl hydrocarbon receptor antagonists in combination with a variety of drugs and investigational agents in selected tumor cell lines
The current study was undertaken to assess response to aryl hydrocarbon receptor antagonists in combination with standard-of-care drugs and investigational agents in solid tumor complex spheroid models. Complex spheroids include a stromal component modeled by human endothelial cells (HUVEC) and fibroblasts modeled by human mesenchymal stem cells (MSCs). The concentration ranges selected for each drug and investigational agent were based upon clinically achievable concentrations if the clinical Cmax of the agent was known.
Compounds. The drugs and investigational agents: BAY 2416964 (NSC825713), GNF351 (NSC835774), CH-223191 (NSC835775), CPI-455 (NSC825282), aza-TdCyd (NSC777586), decitabine (NSC127716), belinostat (NSC758774), entinostat (NSC756642), pevonedistat (NSC761192), tazemetostat (NSC777109), talazoparib (NSC765396), olaparib (NSC753686), selinexor (NSC780203), nedisertib (M3814, NSC802822), bortezomib (NSC756655), venetoclax (NSC766270), doxorubicin (NSC123127), elimusertib (BAY189344, NSC800525), ceralasertib (AZD6738, NSC777638), TAK-243 (NSC785004), alisertib (NSC759677), etoposide (NSC141540), topotecan (NSC609699), eribulin (NSC707389), gemcitabine (NSC613327), carboplatin (NSC241240), cisplatin (NSC119875), and SN-38 (NSC673596) were obtained from the National Cancer Institute (NCI) Developmental Therapeutics Program Chemical Repository (32). The FDA-approved anticancer drug set is available from the Developmental Therapeutics Program at https://dtp.cancer.gov/organization/dscb/obtaining/available plates.htm. […] The stock solutions were prepared in dimethyl sulfoxide (DMSO, Sigma-Aldrich, St. Louis, MO, cat. D2650), except for the platinum compounds which were prepared in saline (Quality Biological, Gaithersburg, MD, cat. 114-055-101), at 800-fold the tested concentration and stored at -70 degrees C prior to their use. All drugs and investigational agents were tested over a range starting from a high concentration at or near the clinical Cmax and decreasing in half-log increments. If the clinical Cmax for an agent had not been determined, the highest concentration tested was 10 microM (Table 1).
Cell Culture. All cells were maintained in an incubator at 37 degrees C and 5% CO2 with 95% humidity. The PDC lines were cultured according to standard operating procedures established by the NCI PDMR (https://pdmr.cancer.gov). Briefly, all PDCs were thawed and cultured in Matrigel-coated flasks prepared with a working solution of 1X Ham's F-12 nutrient mix, without supplementation (Invitrogen, Waltham, MA, cat. 11765054), 100 U/mL penicillin-streptomycin (Invitrogen, cat. 15140122), and 2.5% Matrigel (Corning Inc., Corning, NY, cat. 354248) for the first three passages. All PDCs were cultured in complete DMEM/F-12 media containing advanced DMEM/F-12 (Invitrogen, cat. 12634028), 4.9% defined fetal bovine serum, heat inactivated (HyClone Laboratories Inc., Logan, UT, cat. SH30070.03HI), 389 ng/mL hydrocortisone (Sigma-Aldrich, cat. H4001), 9.7 ng/mL human EGF recombinant protein (Invitrogen, cat. PHG0313), 23.4 microg/mL adenine (Sigma-Aldrich, cat. A2786), 97.3 U/mL penicillin-streptomycin (Invitrogen, cat. 15140122), 1.9 mM L-glutamine (Invitrogen, cat. 25030081), and 9.7 microM Y-27632 dihydrochloride (Tocris Bioscience, Bristol, United Kingdom, cat. 1254). The PDCs were cultured in complete DMEM/F12 media without 10 microM Y-27632 dihydrochloride for at least two passages prior to the screen. The established cell lines NCI-H1341 and […] were cultured in DMEM/F-12, HEPES (Invitrogen, cat. 11330032), 5% defined fetal bovine serum (HyClone Laboratories Inc., cat. SH30070.03), ITS premix universal culture supplement [insulin (5 microg/mL), transferrin (5 microg/mL), and selenious acid (5 ng/mL)] […]
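Further: spheroids exposed to agents for seven days before luminescence viability read.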
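Wherever viability, T/C is given: spheroids also contain HUVEC endothelial cells and human MSC stroma.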

Structure (SMILES)	viability, T/C (compound 0.000949 µM)	viability, T/C (compound 0.003 µM)	viability, T/C (compound 0.00949 µM)	viability, T/C (compound 0.03 µM)	viability, T/C (compound 0.0949 µM)	viability, T/C (compound 0.3 µM)	IC50	viability, T/C (compound 0.0316 µM)	viability, T/C (compound 0.1 µM)	viability, T/C (compound 0.316 µM)	viability, T/C (compound 1 µM)	viability, T/C (compound 3.16 µM)	viability, T/C (compound 10 µM)	viability, T/C (compound 0.00316 µM)	viability, T/C (compound 0.01 µM)	viability, T/C (compound 0.949 µM)	viability, T/C (compound 3 µM)	viability, T/C (compound 0.000316 µM)	viability, T/C (compound 0.001 µM)
CC(C)CC(NC(=O)C(Cc1ccccc1)NC(=O)c1cnccn1)B(O)O (stereo not given)	52.6% and 44.3% and 19.1%	10.6% and 12.6% and 7.27%	1.45% and 2.68% and 2.76%	0.95% and 1.46% and 2.12%	0.72% and 2.31% and 2.54%	0.73% and 2.25% and 1.49%	1.02 nM and < 0.949 nM	–	–	–	–	–	–	–	–	–	–	–	–
CC(C)c1c(-c2ccccc2)nc2c(C#N)c[nH]n2c1=O	–	–	–	–	–	–	> 10000 nM	112% and 92.6% and 89.1%	106% and 83.2% and 76.1%	100% and 78.1% and 72%	103% and 77.8% and 82.3%	108% and 86.8% and 85.3%	91.6% and 86.8% and 79.7%	–	–	–	–	–	–
CC1(C)CCC(CN2CCN(c3ccc(C(=O)NS(=O)(=O)c4ccc(NCC5CCOCC5)c([N+](=O)[O-])c4)c(Oc4cnc5[nH]ccc5c4)c3)CC2)=C(c2ccc(Cl)cc2)C1	–	–	–	–	–	–	> 10000 nM and 7500 nM and 6060 nM	97.2% and 117% and 104%	110% and 106% and 101%	102% and 92.4% and 105%	94.9% and 91.9% and 76.2%	106% and 100% and 68.8%	96.6% and 33.3% and 37.7%	–	–	–	–	–	–
CC1COCCN1c1cc(-c2ccnn2C)c2ccnc(-c3ccn[nH]3)c2n1 (stereo not given)	–	–	–	–	–	–	142 nM and 80.8 nM and 84.4 nM	96.8% and 76.4% and 101%	64% and 45.4% and 42.6%	18.7% and 15.7% and 14.7%	7.38% and 10.8% and 9.29%	–	–	107% and 93.3% and 81%	106% and 116% and 95.6%	–	–	–	–
CC1COCCN1c1cc(C2(S(C)(=N)=O)CC2)nc(-c2ccnc3[nH]ccc23)n1 (stereo not given)	–	–	–	–	–	–	5040 nM and 1510 nM and 1460 nM	101% and 113% and 96.1%	102% and 81.9% and 78.6%	102% and 125% and 74.4%	100% and 62.9% and 65.1%	73% and 40.4% and 28.4%	16.1% and 13.5% and 12.1%	–	–	–	–	–	–
CCN(c1cc(-c2ccc(CN3CCOCC3)cc2)cc(C(=O)NCc2c(C)cc(C)[nH]c2=O)c1C)C1CCOCC1	–	–	111% and 107% and 122%	109% and 98.9% and 71.2%	105% and 81.2% and 91.1%	108% and 64.7% and 101%	> 3000 nM	–	–	–	–	–	–	–	–	99.1% and 66.3% and 69.3%	94% and 69.9% and 88.5%	–	–
CC[C@@]1(O)C(=O)OCc2c1cc1n(c2=O)Cc2cc3c(CN(C)C)c(O)ccc3nc2-1	–	–	–	–	–	–	26.2 nM and 25.8 nM and 12.9 nM	43.4% and 42.2% and 21.3%	15.3% and 21.5% and 13.5%	–	–	–	–	93.6% and 63.5% and 81.3%	84.2% and 87.1% and 64%	–	–	94.4% and 113% and 119%	97.3% and 89.4% and 89.3%
CCc1c2c(nc3ccc(O)cc13)-c1cc3c(c(=O)n1C2)COC(=O)[C@]3(O)CC	55.3% and 67.2% and 40.5%	43.4% and 54.1% and 42.9%	20.6% and 16% and 22.3%	7.29% and 12% and 8.26%	3.4% and 8.26% and 6.22%	1.91% and 6.96% and 4.74%	1.58 nM and 3.39 nM and < 0.949 nM	–	–	–	–	–	–	–	–	–	–	–	–
COc1cc(C2c3cc4c(cc3C(OC3OC5COC(C)OC5C(O)C3O)C3COC(=O)C23)OCO4)cc(OC)c1O (stereo not given)	–	–	–	–	–	–	479 nM and 566 nM and 244 nM	99.4% and 112% and 89.4%	99.9% and 91.1% and 91.7%	64.6% and 71% and 38.2%	22.5% and 31.2% and 21.6%	11.2% and 15.4% and 15.3%	5.4% and 11.7% and 12.5%	–	–	–	–	–	–
COc1cc(Nc2ncc3c(n2)-c2ccc(Cl)cc2C(c2c(F)cccc2OC)=NC3)ccc1C(=O)O	–	–	–	–	–	–	184 nM and 52.6 nM and < 31.6 nM	71.2% and 55.7% and 53.1%	60.4% and 48.7% and 48.4%	35.9% and 24.7% and 26.5%	47% and 31.1% and 35.9%	43% and 33.3% and 42.7%	37.2% and 35.5% and 37.6%	–	–	–	–	–	–
COc1ccc([C@@H](O)c2cc(-c3ncnc4cc(N5CCOCC5)ccc34)c(F)cc2Cl)nn1	–	–	–	–	–	–	3790 nM and 1770 nM and 1160 nM	97.4% and 104% and 117%	112% and 77.3% and 98.6%	101% and 83.1% and 51.5%	84.5% and 66.4% and 65.3%	57.2% and 33.5% and 38.6%	16.7% and 11.3% and 12.6%	–	–	–	–	–	–
COc1cccc2c1C(=O)c1c(O)c3c(c(O)c1C2=O)CC(O)(C(=O)CO)CC3OC1CC(N)C(O)C(C)O1 (stereo not given)	–	–	–	–	–	–	< 31.6 nM	12.1% and 24.6% and 20.9%	7.69% and 19% and 13.3%	1.29% and 5.3% and 4.49%	0.27% and 0.62% and 0.79%	2.73% and 2.97% and 3.14%	4.37% and 6.2% and 5.59%	–	–	–	–	–	–
Cc1cncc(-c2nc(NCCc3c[nH]c4ccccc34)c3ncn(C(C)C)c3n2)c1	–	–	–	–	–	–	–	–	97.7% [middle of 20 runs]	93.4% [middle of 20 runs]	–	–	2.04% [middle of 19 runs]	–	–	–	–	–	–
Cn1ncnc1C1c2n[nH]c(=O)c3cc(F)cc(c23)NC1c1ccc(F)cc1 (stereo not given)	–	–	–	–	–	–	> 100 nM	87.6% and 97.2% and 84.1%	90.1% and 98.5% and 63.7%	–	–	–	–	99.4% and 111% and 92.2%	93.1% and 74.3% and 87%	–	–	100% and 74.1% and 70.2%	102% and 101% and 105%
NS(=O)(=O)OCC1CC(n2ccc3c(NC4CCc5ccccc54)ncnc32)CC1O (stereo not given)	–	–	–	–	–	–	572 nM and 231 nM and 199 nM	94% and 96.6% and 72.3%	96.1% and 79.4% and 73.2%	72.6% and 35.4% and 34.8%	27.8% and 25.5% and 21.3%	15.2% and 12.5% and 14%	6.38% and 8.08% and 8.54%	–	–	–	–	–	–
Nc1ccccc1NC(=O)c1ccc(CNC(=O)OCc2cccnc2)cc1	–	–	–	–	–	–	850 nM and 1440 nM and 937 nM	86.3% and 118% and 87.5%	77.6% and 98.4% and 82.2%	65.7% and 89.3% and 84.6%	48.9% and 69.2% and 44.6%	23.7% and 17.8% and 23.1%	5.19% and 7.03% and 7.04%	–	–	–	–	–	–
Nc1ccn(C2OC(CO)C(O)C2(F)F)c(=O)n1 (stereo not given)	–	–	–	–	–	–	< 31.6 nM	4.83% and 12.5% and 13.7%	4.18% and 11.3% and 11.8%	4.06% and 10.1% and 12.9%	5.57% and 9.29% and 10.5%	4.07% and 9.38% and 10.2%	3.24% and 7.8% and 8.55%	–	–	–	–	–	–
Nc1ncn(C2CC(O)C(CO)O2)c(=O)n1 (stereo not given)	–	–	–	–	–	–	204 nM and 54 nM and 32.5 nM	80% and 57.7% and 46.6%	67% and 49.8% and 46.6%	38.9% and 42.3% and 32.5%	32.3% and 31.3% and 26.1%	–	–	105% and 99.7% and 103%	103% (2×) and 68.3%	–	–	–	–
Nc1ncn(C2CC(O)C(CO)S2)c(=O)n1 (stereo not given)	97.2% and 92.9% and 82.7%	99.2% and 94.3% and 81.9%	96.8% and 87.4% and 85.6%	73.7% and 78.3% and 64.3%	51.7% and 54.9% and 55.8%	29% and 31.2% and 26.1%	94.1 nM and 121 nM and 111 nM	–	–	–	–	–	–	–	–	–	–	–	–
O=C(C=Cc1cccc(S(=O)(=O)Nc2ccccc2)c1)NO	–	–	–	–	–	–	720 nM and 731 nM and 657 nM	81.9% and 112% and 124%	83.5% and 128% and 78%	60.7% and 73.3% and 78.8%	48.6% and 42.6% and 41.5%	13.1% and 11.2% and 10.6%	2.17% and 1.85% and 2.27%	–	–	–	–	–	–
O=C(C=Cn1cnc(-c2cc(C(F)(F)F)cc(C(F)(F)F)c2)n1)NNc1cnccn1	–	–	101% and 61.6% and 69.8%	59.3% and 45% and 45.2%	40.3% and 14.9% and 16.5%	12.2% and 12.3% and 7.91%	49.6 nM and 21.1 nM and 24 nM	–	–	–	–	–	–	–	–	6.89% and 8.37% and 7.72%	4.34% and 6.5% and 7.38%	–	–
O=C(c1cc(Cc2n[nH]c(=O)c3ccccc23)ccc1F)N1CCN(C(=O)C2CC2)CC1	–	–	–	–	–	–	> 10000 nM and 3670 nM and 5620 nM	99.3% and 78.6% and 91.4%	96.3% and 102% and 76.1%	102% and 59% and 78.5%	92.2% and 95.7% and 68.9%	92.4% and 52.9% and 67.8%	64.2% and 30% and 36.2%	–	–	–	–	–	–
